# Measured values published in PMC9661397 (Circulation, 2020).
# Legend:
# C57BL/6J mice = assay: In vivo electrophysiology study, AF induced by burst pacing; parameters: species or system mouse; conditions: for AF inducibility: 25 mg·kg−1·d−1 IP for 4 weeks (28 days)
# TNFα = assay: Plasma cytokine measurement; type: in vivo, mouse; conditions: 25 mg/kg daily for 4 weeks, C57BL/6J mice, vs vehicle
# [1] = tested on: Fn1, Col1a1, and Col3a1 mRNA; assay: Quantitative real-time PCR of fibrosis markers in LA tissue; type: in vivo, mouse; conditions: 25 mg/kg daily for 4 weeks, C57BL/6J mice
# FYN = FYN (Mus musculus, UniProt P39688); assay: KiNativ chemoproteomic kinase profiling in mouse heart lysate; type: binding; conditions: read-out: % inhibition of FYN
# Sequence of FYN (P39688 whole entry): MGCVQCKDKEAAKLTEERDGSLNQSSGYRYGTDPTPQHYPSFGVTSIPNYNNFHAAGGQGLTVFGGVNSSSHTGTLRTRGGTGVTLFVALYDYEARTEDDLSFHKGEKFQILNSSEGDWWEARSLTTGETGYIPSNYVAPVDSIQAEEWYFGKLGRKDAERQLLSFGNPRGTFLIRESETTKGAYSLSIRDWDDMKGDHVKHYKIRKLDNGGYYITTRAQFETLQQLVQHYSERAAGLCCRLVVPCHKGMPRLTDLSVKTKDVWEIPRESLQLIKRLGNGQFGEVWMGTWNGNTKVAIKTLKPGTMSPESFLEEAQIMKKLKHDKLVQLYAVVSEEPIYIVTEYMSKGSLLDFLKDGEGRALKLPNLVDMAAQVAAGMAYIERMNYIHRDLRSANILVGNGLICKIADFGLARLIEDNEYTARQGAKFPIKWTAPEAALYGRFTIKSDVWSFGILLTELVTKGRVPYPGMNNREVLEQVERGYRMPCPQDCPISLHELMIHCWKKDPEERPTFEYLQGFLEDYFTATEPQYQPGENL
# IL-6 = assay: Plasma cytokine measurement; type: in vivo, mouse; conditions: 25 mg/kg daily for 4 weeks, C57BL/6J mice, vs vehicle
# MEK5 = biological target: T1, MEK5 (Mus musculus, UniProt Q9WVS7); assay: KiNativ chemoproteomic kinase profiling in mouse heart lysate; type: binding; conditions: read-out: % inhibition of MEK5
# T1 sequence (Q9WVS7 1-448): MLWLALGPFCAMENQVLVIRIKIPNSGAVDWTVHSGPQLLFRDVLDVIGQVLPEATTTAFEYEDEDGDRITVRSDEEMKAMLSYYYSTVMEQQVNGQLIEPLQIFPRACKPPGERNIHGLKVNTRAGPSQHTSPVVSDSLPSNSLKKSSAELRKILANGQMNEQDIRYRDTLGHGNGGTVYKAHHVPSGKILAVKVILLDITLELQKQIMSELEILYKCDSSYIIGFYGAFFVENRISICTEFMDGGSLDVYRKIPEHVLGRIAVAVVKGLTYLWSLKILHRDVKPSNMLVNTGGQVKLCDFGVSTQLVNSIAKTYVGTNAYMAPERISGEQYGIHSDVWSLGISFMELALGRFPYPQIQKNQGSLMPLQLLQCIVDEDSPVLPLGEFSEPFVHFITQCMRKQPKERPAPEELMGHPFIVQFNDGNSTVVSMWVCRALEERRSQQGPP
# mice = assay: Echocardiography and cardiac MRI of cardiac structure; type: in vivo, mouse
# BTK^xid mice = conditions: 25 mg·kg−1·d−1 IP for 4 weeks, vs vehicle
# CSK = CSK (Mus musculus, UniProt P41241); assay: KiNativ chemoproteomic kinase profiling in mouse heart lysate; type: binding
# Sequence of CSK (P41241 whole entry): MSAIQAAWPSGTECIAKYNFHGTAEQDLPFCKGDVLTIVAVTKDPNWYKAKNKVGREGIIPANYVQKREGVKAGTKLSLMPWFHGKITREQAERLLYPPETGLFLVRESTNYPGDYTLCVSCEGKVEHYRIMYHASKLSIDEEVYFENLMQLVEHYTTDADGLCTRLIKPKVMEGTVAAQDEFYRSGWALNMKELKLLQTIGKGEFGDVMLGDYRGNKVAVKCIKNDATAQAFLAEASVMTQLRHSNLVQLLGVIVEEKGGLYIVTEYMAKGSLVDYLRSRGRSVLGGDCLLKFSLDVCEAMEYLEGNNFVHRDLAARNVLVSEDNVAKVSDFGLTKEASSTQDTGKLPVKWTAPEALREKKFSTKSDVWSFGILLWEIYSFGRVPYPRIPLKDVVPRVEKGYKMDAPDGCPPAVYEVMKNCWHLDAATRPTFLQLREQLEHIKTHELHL
# RIPK3 = RIPK3 (Mus musculus, UniProt Q9QZL0); assay: as above; type: binding; conditions: read-out: % inhibition of RIPK3
# Sequence of RIPK3 (Q9QZL0 whole entry): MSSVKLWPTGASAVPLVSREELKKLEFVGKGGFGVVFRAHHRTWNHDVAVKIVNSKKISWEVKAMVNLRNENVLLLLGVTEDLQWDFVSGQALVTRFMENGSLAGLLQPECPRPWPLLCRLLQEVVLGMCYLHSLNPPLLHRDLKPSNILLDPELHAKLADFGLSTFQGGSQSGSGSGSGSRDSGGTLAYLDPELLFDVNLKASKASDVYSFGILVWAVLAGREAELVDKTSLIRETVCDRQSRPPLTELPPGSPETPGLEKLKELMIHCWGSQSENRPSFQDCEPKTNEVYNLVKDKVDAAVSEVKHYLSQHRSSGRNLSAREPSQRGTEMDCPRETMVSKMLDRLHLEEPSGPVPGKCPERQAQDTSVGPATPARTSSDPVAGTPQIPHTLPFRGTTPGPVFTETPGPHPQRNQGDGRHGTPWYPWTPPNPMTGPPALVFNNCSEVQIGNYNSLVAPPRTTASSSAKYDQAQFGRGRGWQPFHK
# BTK = BTK (Mus musculus, UniProt P35991); assay: as above; type: binding; conditions: read-out: % inhibition of BTK
# Sequence of BTK (P35991 whole entry): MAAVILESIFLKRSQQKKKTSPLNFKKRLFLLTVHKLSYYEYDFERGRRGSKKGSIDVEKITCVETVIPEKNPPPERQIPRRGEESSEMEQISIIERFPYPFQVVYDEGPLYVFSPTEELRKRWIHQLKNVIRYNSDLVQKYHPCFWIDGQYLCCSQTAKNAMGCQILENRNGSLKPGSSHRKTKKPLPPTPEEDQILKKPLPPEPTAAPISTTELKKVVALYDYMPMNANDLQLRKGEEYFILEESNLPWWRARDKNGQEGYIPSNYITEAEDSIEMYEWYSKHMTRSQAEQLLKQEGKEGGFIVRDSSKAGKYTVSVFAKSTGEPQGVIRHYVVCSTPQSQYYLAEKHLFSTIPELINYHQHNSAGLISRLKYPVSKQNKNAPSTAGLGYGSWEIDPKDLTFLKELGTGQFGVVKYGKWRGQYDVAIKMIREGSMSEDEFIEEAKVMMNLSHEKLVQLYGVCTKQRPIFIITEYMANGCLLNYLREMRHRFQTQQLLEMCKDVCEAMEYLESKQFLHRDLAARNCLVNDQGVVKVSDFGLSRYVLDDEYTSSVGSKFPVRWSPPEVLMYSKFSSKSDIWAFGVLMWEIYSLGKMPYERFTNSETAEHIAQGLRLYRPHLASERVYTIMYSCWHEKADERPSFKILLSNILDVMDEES
# [2] = 25 mg/kg daily for 4 weeks, C57BL/6J mice, vs vehicle
smiles,measurement,setting,value
CN(C)Cc1cccc(N/C(=C2\C(=O)Nc3cc(C(N)=O)ccc32)c2ccccc2)c1 [BIX-02188],AF inducibility,"C57BL/6J mice; C57BL/6J mice, vs vehicle",did not lead to an increase in AF inducibility
CN1CCN(CCOc2cc(OC3CCOCC3)c3c(Nc4c(Cl)ccc5c4OCO5)ncnc3c2)CC1 [saracatinib],AF inducibility,"C57BL/6J mice; C57BL/6J mice, vs vehicle",did not result in increased AF
C=CC(=O)N1CCC[C@@H](n2nc(-c3ccc(Oc4ccccc4)cc3)c3c(N)ncnc32)C1 [ibrutinib],circulating tumor necrosis factor α (TNFα),TNFα,elevated
same,"expression of fibrosis markers fibronectin, and collagens 1α1 and 3α1",[1],increased expression
same,inhibition at 10 µM,FYN,> 90%
same,circulating interleukin-6 (IL-6),IL-6,elevated
same,inhibition at 10 µM,MEK5,> 90%
same,left ventricular ejection fraction,"mice; 25 mg/kg daily for 4 weeks, C57BL/6J mice, MRI",preserved
same,atrial dilation (LA size),mice; [2],significant atrial dilation
same,LA enlargement (LA diameter by echocardiography),"mice; BTK^xid mice, 25 mg·kg−1·d−1 IP for 4 weeks",LA enlargement
same,atrial effective refractory periods,C57BL/6J mice; [2],prolonged
same,AF inducibility,"C57BL/6J mice; C57BL/6J mice, vs vehicle",more inducible atrial fibrillation than vehicle injected mice
same,inducible AF,"C57BL/6J mice; short duration exposure, mice",did not result in increased inducible AF
same,AF inducibility,BTK^xid mice,significant increase in AF inducibility
same,inhibition at 10 µM,CSK; read-out: % inhibition of CSK,> 90%
same,inhibition at 10 µM,RIPK3,> 90%
CC#CC(=O)N1CCC[C@H]1c1nc(-c2ccc(C(=O)Nc3ccccn3)cc2)c2c(N)nccn12 [acalabrutinib],inhibition at 10 µM,BTK,> 90%
same,AF inducibility,"C57BL/6J mice; C57BL/6J mice, vs vehicle",did not cause AF
same,% inhibition of CSK,"CSK; 10 μM, 15 minutes, mouse heart lysate, ATP probe 20 μmol/L",do not inhibit CSK
same,inhibition at 10 µM,RIPK3,> 90%
